Broadly, the chromatographic logP is a lipophilicity value derived from retention on a column. High values mean a more lipophilic compound, low ones a more hydrophilic compound.

This passage reports log p and chromatographic logP results from patent US7781439B2, “Pyrazolopyrimidines” (Bayer CropScience AG, priority 2005, dated 2010).

Marks after values point to notes of the source that are not given here.

One series can be described thus: log P determination. It counts as physicochemical. Particulars: EEC Directive 79/831 Annex V. A8 by HPLC (gradient method, acetonitrile/0.1% aqueous phosphoric acid).
As for `CC(C)C(C)Nc1c(-c2ccc(F)cc2Cl)c(Cl)nc2c(C(=O)Nc3ccn(C)n3)cnn12` (stereo not drawn) [compound 1184], the log p was determined as 4.35.

In turn, `CC(Nc1c(-c2ccc(F)cc2Cl)c(Cl)nc2c(C(=O)Nc3ccn(C)n3)cnn12)C(C)(C)C` (stereo not drawn) [compound 1185] showed a log p of 4.69.

Take `CC(C)C(C)Nc1c(-c2ccc(F)cc2Cl)c(Cl)nc2c(C(=O)Nc3ccnn3C)cnn12` (stereo not drawn) [compound 1186]: the log p is recorded as 4.18.

`CC(Nc1c(-c2ccc(F)cc2Cl)c(Cl)nc2c(C(=O)Nc3cnn(C)c3)cnn12)C(C)(C)C` (stereo not drawn) [compound 1187]: the log p stood at 4.26.

`CC(C)C(C)Nc1c(-c2ccc(F)cc2Cl)c(Cl)nc2c(C(=O)Nc3ncn(C)n3)cnn12` (stereo not drawn) [compound 1188] had a log p of 3.62.

For `CC(C)C(C)Nc1c(-c2ccc(F)cc2Cl)c(Cl)nc2c(C(=O)Nc3cnn(C)c3)cnn12` (stereo not drawn) [compound 1189], the log p is on record as 3.95.

In turn, `CC(C)C(C)Nc1c(-c2ccc(F)cc2F)c(Cl)nc2c(C(=O)NS(C)(=O)=O)cnn12` (stereo not drawn) [compound 1190] displayed a log p of 3.87.

The molecule `CC(Nc1c(-c2ccc(F)cc2Cl)c(Cl)nc2c(C(=O)Nc3ncn(C)n3)cnn12)C(C)(C)C` (stereo not drawn) [compound 1191] gave a log p of 3.91.

For `CC1CCN(c2c(-c3ccc(F)cc3Cl)c(Cl)nc3c(C(=O)Nc4ncn(C)n4)cnn23)CC1` [compound 1192], the log p stood at 3.89.

Molecule `CC1CCN(c2c(-c3ccc(F)cc3Cl)c(Cl)nc3c(C(=O)Nc4ccnn4C)cnn23)CC1` [compound 1193] had a log p of 4.47.

`Cc1ccc(-c2c(Cl)nc3c(C(=O)NS(C)(=O)=O)cnn3c2NC(C)C(C)(C)C)c(Cl)c1` (stereo not drawn) [compound 1194]: the log p is 4.76.

Regarding `CC1CCN(c2c(-c3ccc(F)cc3Cl)c(Cl)nc3c(C(=O)Nc4ccn(C)n4)cnn23)CC1` [compound 1195], the log p is listed as 4.66.

With `CC1CCN(c2c(-c3ccc(F)cc3Cl)c(Cl)nc3c(C(=O)Nc4cnn(C)c4)cnn23)CC1` [compound 1196], the log p is listed as 4.31.

Molecule `CC1CCN(c2c(-c3ccc(F)cc3Cl)c(Cl)nc3c(C(=O)Nc4ncn[nH]4)cnn23)CC1` [compound 1197] displayed a log p of 4.11.

Staying with this series, now noted: HPLC (gradient method); starting materials and intermediates, log P / log P*; read-out: log P.
As to `COC(=O)c1cn[nH]c1N` [methyl 5-amino-1H-pyrazole-4-carboxylate], the log p was -0.07.

The same series, now with this note: HPLC, gradient method, acetonitrile/0.1% aqueous phosphoric acid (EEC Directive 79/831 Annex V. A8).
As to `CNC(=O)NC(=O)c1cnn2c(N[C@H](C)C(C)C)c(-c3ccc(F)cc3C)c(Cl)nc12` [Example 1178], the log p amounted to 4.42.

On to `Cc1cc(F)ccc1-c1c(Cl)nc2c(C(=O)Nc3ncccn3)cnn2c1NC(C)C(C)C` (stereo not drawn) [compound 1179], for which the log p was 6.61.

The molecule `CC(C)C(C)Nc1c(-c2ccc(F)cc2F)c(Cl)nc2c(C(=O)NN3CCOCC3)cnn12` (stereo not drawn) [compound 1180] gave a log p of 3.46.

On to `Cc1ccc(-c2c(Cl)nc3c(C(=O)NN4CCOCC4)cnn3c2NC(C)C(C)(C)C)c(Cl)c1` (stereo not drawn) [compound 1181], for which the log p is 4.41.

`CC(Nc1c(-c2ccc(F)cc2F)c(Cl)nc2c(C(=O)NN3CCOCC3)cnn12)C(C)(C)C` (stereo not drawn) [compound 1182] gave a log p of 3.76.

With `Cc1ccsc1-c1c(Cl)nc2c(C(=O)NN3CCOCC3)cnn2c1NC(C)C(C)C` (stereo not drawn) [compound 1183], the log p is listed as 3.63.

Still in this series, the particulars now being: starting materials and intermediates, log P / log P*; read-out: log P.
For the molecule `COC(=O)c1cnn2c(Cl)c(-c3ccc(Cl)cc3Cl)c(Cl)nc12` [Methyl 5,7-dichloro-6-(2,4-dichlorophenyl)pyrazolo[1,5-a]pyrimidine-3-carboxylate], the log p turned out to be 3.86.

As for `COC(=O)c1cnn2c(NC(C)C)c(-c3ccc(Cl)cc3Cl)c(Cl)nc12` [Methyl 5-chloro-6-(2,4-dichlorophenyl)-7-isopropylaminopyrazolo[1,5-a]pyrimidine-3-carboxylate], the log p came to 4.07.

For `COC(=O)c1cnn2c(O)c(-c3ccc(Cl)cc3Cl)c(O)nc12` [Methyl 6-(2,4-dichlorophenyl)-5,7-dihydroxypyrazolo[1,5-a]pyrimidine-3-carboxylate], the log p came out at 1.21.

Staying with this series, now noted: values marked **; EEC Directive 79/831 Annex V.A8, HPLC gradient method, acetonitrile/0.1% aqueous formic acid.
With `Cc1cc(F)c(-c2c(Cl)nc3c(C(=O)NS(C)(=O)=O)cnn3c2N[C@H](C)C(C)(C)C)c(F)c1` [compound 51], the log p was 4.38**.

As to `CC(Nc1c(-c2ccccc2)c(Cl)nc2c(C(=O)Nc3ccon3)cnn12)C(C)(C)C` (stereo not drawn) [compound 71], the log p is on record as 4.88**.

Take `CC(C)[C@@H](C)Nc1c(-c2ccc(Cl)cc2Cl)c(Cl)nc2c(C(=O)NS(=O)(=O)C(F)(F)F)cnn12` [compound 206]: the log p is on record as 3.87**.

Regarding `CCS(=O)(=O)NC(=O)c1cnn2c(N[C@H](C)C(C)C)c(-c3ccc(Cl)cc3Cl)c(Cl)nc12` [compound 208], the log p is reported as 4.88**.

In the case of `Cc1cc(F)c(-c2c(Cl)nc3c(C(=O)NS(C)(=O)=O)cnn3c2N[C@H](C)C(C)C)c(F)c1` [compound 219], the log p was 4.08**.

The series is the same for the next values; noted with them: values marked *; HPLC, gradient method, acetonitrile/0.1% aqueous phosphoric acid, EEC Directive 79/831 Annex V. A8.
For the molecule `CC(C)(C)CNc1c(-c2ccccc2Cl)c(Cl)nc2c(C(=O)NS(C)(=O)=O)cnn12` [Example 525], the log p was 4.17*.

For `CC(C)(C)CNc1c(-c2ccc(Cl)cc2Cl)c(Cl)nc2c(C(=O)NS(C)(=O)=O)cnn12` [Example 543], the log p is given as 4.63*.

As to `CC(C)(C)CNc1c(-c2c(F)cc(Cl)cc2F)c(Cl)nc2c(C(=O)NS(C)(=O)=O)cnn12` [Example 549], the log p is 4.31*.

In turn, `CC(C)Nc1c(-c2ccc(Cl)cc2Cl)c(Cl)nc2c(C(=O)NS(C)(=O)=O)cnn12` [compound 375] yielded a chromatographic logP of 3.91.
